pEC50: −log10 of the molar value. Where two headings read alike, the source gives them in different places.
Key:
[1] = molecular target: T1, M1 muscarinic receptor (Homo sapiens, UniProt P11229); assay: Functional mobilization of intracellular calcium (FLIPR) in M1-CHO cells; assay type: cell-based
T1 construct: expressed in transfected cells; host or cells: CHO (M1-CHO)
T1 sequence (P11229 1-460): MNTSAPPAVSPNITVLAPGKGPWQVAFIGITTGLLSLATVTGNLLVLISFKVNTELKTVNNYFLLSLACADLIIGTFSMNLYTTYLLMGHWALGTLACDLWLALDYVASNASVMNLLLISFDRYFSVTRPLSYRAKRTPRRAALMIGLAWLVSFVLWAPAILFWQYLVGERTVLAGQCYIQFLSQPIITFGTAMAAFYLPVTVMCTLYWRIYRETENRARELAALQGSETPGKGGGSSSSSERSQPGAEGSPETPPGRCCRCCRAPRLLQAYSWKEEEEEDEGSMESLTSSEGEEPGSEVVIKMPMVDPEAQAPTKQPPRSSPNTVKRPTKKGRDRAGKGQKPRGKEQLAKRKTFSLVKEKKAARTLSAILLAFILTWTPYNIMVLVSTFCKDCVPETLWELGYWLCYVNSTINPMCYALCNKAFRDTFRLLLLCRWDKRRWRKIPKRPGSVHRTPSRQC
Outline: (§1)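 Steps: seed M1- or M4-CHO cells 18-24 hrs ahead; load calcium dye with 1 mM probenecid; add test compound (0.5% DMSO final), either alone for agonism or 15 min before EC80 carbachol for inhibition; record FLIPR fluorescence for 60 sec.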

[2] = molecular target: T2, M4 muscarinic receptor (Homo sapiens, UniProt P08173); assay: Functional mobilization of intracellular calcium (FLIPR) in M4-CHO cells; assay type: cell-based
T2 construct: expressed in transfected cells; host or cells: CHO (M4-CHO)
T2 sequence (P08173 1-479): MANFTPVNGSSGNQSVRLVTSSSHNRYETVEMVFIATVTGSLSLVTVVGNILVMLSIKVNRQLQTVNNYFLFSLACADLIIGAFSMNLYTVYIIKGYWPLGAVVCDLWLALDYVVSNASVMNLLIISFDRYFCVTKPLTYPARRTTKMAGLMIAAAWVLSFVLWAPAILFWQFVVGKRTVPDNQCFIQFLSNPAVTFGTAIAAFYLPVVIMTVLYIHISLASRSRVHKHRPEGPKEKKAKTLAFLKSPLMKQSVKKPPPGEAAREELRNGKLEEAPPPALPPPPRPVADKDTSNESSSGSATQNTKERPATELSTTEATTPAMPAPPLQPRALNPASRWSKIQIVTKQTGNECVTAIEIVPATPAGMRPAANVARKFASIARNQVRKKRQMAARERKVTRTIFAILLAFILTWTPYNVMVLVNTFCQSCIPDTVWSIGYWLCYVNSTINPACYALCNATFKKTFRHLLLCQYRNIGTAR
Outline: as §1

[3] = M1 receptor, calcium mobilization
[4] = M1 receptor, calcium mobilization, read-out: M1 Efficacy
[5] = M4 receptor, calcium mobilization
[6] = M4 receptor, calcium mobilization, read-out: M4 Efficacy
[7] = Table 4, 100% efficacy is the maximum response obtained with the Carbachol control
[8] = Table 4, modulating M1 receptor
[9] = Table 4, modulating M4 receptor
[10] = Table 4, M1 receptor, calcium mobilization (FLIPR)
[11] = Table 4, M4 receptor, calcium mobilization (FLIPR)
[12] = M1-CHO cells, calcium mobilization (FLIPR)
[13] = M1-CHO cells, calcium mobilization (FLIPR), read-out: M1 Efficacy
[14] = M4-CHO cells, calcium mobilization (FLIPR)
[15] = M4-CHO cells, calcium mobilization (FLIPR), read-out: M4 Efficacy
[16] = 100% efficacy is the maximum response obtained with the Carbachol control, Table 5

Row | Compound | M1 Activity [1, 3] | Emax [1, 4] | M4 Activity [2, 5] | Emax [2, 6] | Emax [1, 7] | M1 Activity [1, 8] | Emax [2, 7] | M4 Activity [2, 9] | also measured
1 | CCOC(=O)N1CCC(CN2CCC3(CC2)COc2ccc(F)cc23)CC1 [compound 107] | xxx (activity was measured to be less than 0.1 μM) | 65 to 85% | x (activity was measured to be greater than 1.0 μM) | < 65% |  |  |  |  | 
2 | CCOC(=O)N1CCC(N2CCC3(CC2)CN(C(C)=O)c2ccc(-c4ccoc4)cc23)CC1 [compound 128] | xxx (activity was measured to be less than 0.1 μM) | < 65% | xx (activity was measured to be between 0.1 μM and 1.0 μM) | < 65% |  |  |  |  | 
3 | CCOC(=O)N1CCC(CN2CCC3(CC2)CN(C(C)=O)c2ccc(C(C)C)cc23)CC1 [compound 555] |  |  |  |  | 25 to 100% | xxx (activity was measured to be less than 2.0 μM) | 25 to 100% | xx (activity was measured to be between 2.0 μM and 5.0 μM) | 
4 | CN(C)C(=O)NC1CCC2(CCN(CCC3CC4CCC3C4)CC2)c2ccccc21 (centres unmarked) [compound 1010] |  |  |  |  | < 25% |  | < 25% |  | M1 Activity [1, 10]: x (activity was measured to be greater than 5.0 μM); M4 Activity [2, 11]: x (activity was measured to be greater than 5.0 μM)
5 | CCOC(=O)N1CCC(N2CCC3(CC2)CN(C(=O)N2CCCCC2)c2ccccc23)CC1 [compound 688] |  |  |  |  | 25 to 100% | xxx (activity was measured to be less than 2.0 μM) | 25 to 100% | xxx (activity was measured to be less than 2.0 μM) | 
6 | c1ccc2c(c1)NCC21CCN(C2CCCCC2)CC1 [compound 375] |  |  |  |  |  |  |  |  | pEC50 [1, 12]: > 7.00; Emax [1, 13]: > 85%; pEC50 [2, 14]: > 7.00; Emax [2, 15]: 65 to 85%
7 | CN(C)C(=O)N1CC2(CCN(C3CCN(c4ccc(F)cc4)CC3)CC2)c2cc(F)ccc21 [compound 1026] |  |  |  |  |  |  |  |  | Emax [1, 16]: 25 to 100%; pEC50 ([1]; CHO cells expressing M1, calcium mobilization, Table 5): 5.00 to 5.70; Emax [2, 16]: < 25%; pEC50 ([2]; CHO cells expressing M4, calcium mobilization, Table 5): > 5.70
8 | CCOC(=O)N1C2CCC1CC(N1CCC3(CC1)CN(C(=O)c1ccncc1)c1ccc(F)cc13)C2 (centres unmarked) [compound 308] | xxx (activity was measured to be less than 0.1 μM) | > 85% | x (activity was measured to be greater than 1.0 μM) | < 65% |  |  |  |  | 
9 | CCOC(=O)N1C2CCC1CC(N1CCCC3(CC1)CN(C(C)=O)c1ccc(F)cc13)C2 (centres unmarked) [compound 746] |  |  |  |  | 25 to 100% | xxx (activity was measured to be less than 2.0 μM) | 25 to 100% | xxx (activity was measured to be less than 2.0 μM) | 
10 | CCOC(=O)N1CCC(CN2CCC3(CC2)CN(C(C)=O)c2c(F)cc(F)cc23)CC1 [compound 722] |  |  |  |  | 25 to 100% | xxx (activity was measured to be less than 2.0 μM) | 25 to 100% | xxx (activity was measured to be less than 2.0 μM) | 
11 | CC(=O)N1CC2(CCN(CC3CCN(C(=O)OC(C)C)CC3)CC2)c2cc(F)ccc21 [compound 202] | xx (activity was measured to be between 0.1 μM and 1.0 μM) | 65 to 85% | x (activity was measured to be greater than 1.0 μM) | < 65% |  |  |  |  | 
12 | CCOC(=O)N1C2CCC1CC(N1CCC3(CC1)CN(C(=O)O[C@@H]1CCOC1)c1ccc(F)cc13)C2 (some centres unmarked) [compound 28] | xxx (activity was measured to be less than 0.1 μM) | > 85% | xx (activity was measured to be between 0.1 μM and 1.0 μM) | 65 to 85% |  |  |  |  | 
13 | CCOC(=O)N1CCC(N2CCC3(CC2)CN(c2cccc(OC)c2)c2ccc(F)cc23)CC1 [compound 838] |  |  |  |  | 25 to 100% |  | 25 to 100% |  | M1 Activity [1, 10]: xxx (activity was measured to be less than 2.0 μM); M4 Activity [2, 11]: xxx (activity was measured to be less than 2.0 μM)
14 | CC(=O)N1CC2(CCN(CC3CC3)CC2)c2cc(F)ccc21 [compound 577] |  |  |  |  | < 25% | x (activity was measured to be greater than 5.0 μM) | < 25% | x (activity was measured to be greater than 5.0 μM) | 
15 | COC(=O)N1CCCC(CCN2CCC3(CCC(NC(C)=O)c4ccccc43)CC2)C1 (centres unmarked) [compound 936] |  |  |  |  | 25 to 100% |  | < 25% |  | M1 Activity [1, 10]: xxx (activity was measured to be less than 2.0 μM); M4 Activity [2, 11]: x (activity was measured to be greater than 5.0 μM)
16 | CCOC(=O)N1C2CCC1CC(N1CCC3(CC1)COc1ccc(F)cc13)C2 (centres unmarked) [compound 42] | xxx (activity was measured to be less than 0.1 μM) | > 85% | xx (activity was measured to be between 0.1 μM and 1.0 μM) | > 85% |  |  |  |  | 
17 | CCOC(=O)N1CCC(N2CCC3(CC2)CN(C(C)=O)c2ccccc23)CC1 [compound 626] |  |  |  |  | 25 to 100% | xxx (activity was measured to be less than 2.0 μM) | 25 to 100% | xxx (activity was measured to be less than 2.0 μM) | 
18 | CCOC(=O)N1CCC(CN2CCC3(CC2)CN(C(C)=O)c2ccc(C)cc23)CC1 [compound 46] | xxx (activity was measured to be less than 0.1 μM) | > 85% | xxx (activity was measured to be less than 0.1 μM) | 65 to 85% |  |  |  |  | 
19 | CCCCC(=O)N1CC2(CCN(C3CCN(C(=O)OCC)CC3)CC2)c2cc(F)ccc21 [compound 270] | xxx (activity was measured to be less than 0.1 μM) | 65 to 85% | xxx (activity was measured to be less than 0.1 μM) | > 85% |  |  |  |  | 
20 | CCOC(=O)N1CCC(N2CCC3(CC2)CN(C(=O)C2(O)CC2)c2ccc(F)cc23)CC1 [compound 543] |  |  |  |  | > 100% | xxx (activity was measured to be less than 2.0 μM) | 25 to 100% | xxx (activity was measured to be less than 2.0 μM) | 
21 | Cc1ccc2c(c1)C1(CCN(C3CC4CCC3C4)CC1)CN2C(=O)NC(C)C (centres unmarked) [compound 667] |  |  |  |  | < 25% | x (activity was measured to be greater than 5.0 μM) | 25 to 100% | x (activity was measured to be greater than 5.0 μM) | 
22 | O=C(OC1CCCC1)N1C2CCC1CC(N1CCC3(CC1)C(=O)Nc1ccccc13)C2 (centres unmarked) [compound 271] | xxx (activity was measured to be less than 0.1 μM) | 65 to 85% | xxx (activity was measured to be less than 0.1 μM) | < 65% |  |  |  |  | 
23 | CCOC(=O)N1CCC(N2CCC3(CC2)CN(C(=O)c2ccccc2)c2ccc(F)cc23)CC1 [compound 384] |  |  |  |  |  |  |  |  | pEC50 [1, 12]: 6.00 to 7.00; Emax [1, 13]: < 65%; pEC50 [2, 14]: < 6.00; Emax [2, 15]: < 65%
24 | CN(C)C(=O)N[C@H]1CC2(CCN(C[C@@H]3C[C@H]4C=C[C@H]3C4)CC2)c2ccccc21 [compound 438] |  |  |  |  | 25 to 100% | xxx (activity was measured to be less than 2.0 μM) | < 25% | xxx (activity was measured to be less than 2.0 μM) | 
25 | CCOC(=O)N1CCC(N2CCC3(CC2)CN(C(=O)c2ccccc2OC)c2ccc(F)cc23)CC1 [compound 262] | x (activity was measured to be greater than 1.0 μM) | < 65% | x (activity was measured to be greater than 1.0 μM) | < 65% |  |  |  |  | 
26 | Cc1ccc2c(c1)C1(CCN(C3CC4CCC3C4)CC1)CN2S(C)(=O)=O (centres unmarked) [compound 232] | xx (activity was measured to be between 0.1 μM and 1.0 μM) | < 65% | xxx (activity was measured to be less than 0.1 μM) | > 85% |  |  |  |  | 

From US7786141B2 (Vertex Pharmaceuticals Incorporated, priority 2004, dated 2010)
